Measured values taken from article PMC4750701, “Role of Mitochondrial RNA Polymerase in the Toxicity of Nucleotide Inhibitors of Hepatitis C Virus” (Antimicrobial Agents and Chemotherapy, 2016).

What was measured:
[1] = test system: mitochondrial DNA-encoded cytochrome c oxidase (COX-1); assay: Mitochondrial protein synthesis assay (COX-1, MitoBiogenesis in-cell ELISA) in PC-3 cells; format: cell-based, human; conditions: PC-3 cells; for selectivity of effect on COX-1 versus SDH-A and ATP levels: 5-day treatments
Method in brief: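 PC-3 cells were exposed to compound for 5 days. Protein levels of nuclear-encoded SDH-A and mitochondrial-encoded COX-1 were then quantified by in-cell ELISA (quantitative immunocytochemistry).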

[2] = Cytotoxicity in primary rat neonatal cardiomyocytes, 5 days; format: cell-based; conditions: Sprague Dawley, 5-day treatment, read-out: CC50 (mean ± standard deviation) in primary rat cardiomyocytes
[3] = test system: mitochondrial respiration in primary rat cardiomyocytes; assay: Spare respiratory capacity in primary rat cardiomyocytes; conditions: primary rat cardiomyocytes, 3-day treatments
Experimental: (§1) Primary rat neonatal cardiomyocytes were isolated from 3-day-old Sprague Dawley rat pups as described previously ([14]).
(§2) Mitochondrial respiration was monitored by measuring the rate of oxygen consumption (OCR) of PC-3 cells after 3-day treatments with the compounds, using a Seahorse extracellular flux analyzer (XF^e-96) based on published protocols ([22][–][24]). The optimal cell seeding was determined by measuring the basal OCR of PC-3 cells that were seeded at different densities of 2.5 × 10^3, 5 × 10^3, 7.5 × 10^3, and 10 × 10^3 cells/well in XF 96-well plates (Seahorse Bioscience, North Billerica, MA) and incubated with 0.5% dimethyl sulfoxide (DMSO) for 3 days. […] Each reagent in the Mito Stress test kit (Seahorse Biosciences), i.e., ATP synthase inhibitor oligomycin, mitochondrial uncoupler carbonyl cyanide-4-(trifluoromethoxy)phenylhydrazone (FCCP), and a fixed-ratio mixture of the mitochondrial complex I (NADH dehydrogenase) inhibitor rotenone and the complex III (CoQH2-cytochrome c reductase) inhibitor antimycin A, was titrated. […] The OCR signals were normalized by cell numbers using DNA content determined by Hoechst's stain as described below.
(§3) PC-3 cells were seeded at a density of 5 × 10^3 cells/well in XF 96-well plates and incubated with the compounds for 3 days. […] Mitochondrial respiration was monitored by measuring OCR on a Seahorse extracellular flux analyzer (XF^e-96). […]

[4] = as above; conditions: Sprague Dawley, rat, primary rat neonatal cardiomyocytes
Experimental: as §1, §2, §3

[5] = test system: RNA transcription products from PolI (preribosome), PolII (myc), and PolRMT (ATP6) in PC-3 cells; assay: RNA transcripts in PC-3 cells by RT-PCR; format: cell-based, human; conditions: 100 μM, 1-day treatment
Experimental: CX-5461, a known specific RNA PolI inhibitor, was used as the positive control ([25]). The growth medium was aspirated and replaced with 200 μl of 100 μM BMS-986094, 5 μM CX-5461, or DMSO control prepared in growth medium. At selected time points (0.5, 1, 4, 8, and 24 h), duplicate wells of the compounds and DMSO control were aspirated, the cells were washed 1× with PBS (pH 7.4), and 100 μl of RNA lysis buffer was added (Promega, Sunnyvale, CA). RNA was purified using the Wizard SV 96 total RNA isolation kit (Promega) and eluted in 100 μl of nuclease-free water. The TaqMan RNA-to-Ct 1-step kit (ABI/Life Technologies) was used for reverse transcription-quantitative PCR (RT-qPCR) amplification and quantification, using the 7900HT Fast real-time PCR system (ABI) under the following conditions: 15 min at 48°C for reverse transcription and 10 min at 95°C for activation, followed by 40 cycles of 15 s at 95°C for denaturation and 1 min at 60°C for annealing and extension. […] Transcripts were quantified relative to the standard curves, and the results expressed as the percentages of the average value of DMSO control wells.

HCV replicon = test system: HCV replicon; design: method as in PMID 21357300, PMID 21060109; conditions: cited from earlier work
Stimulated PBMCs = test system: Stimulated PBMCs; design: method as in PMID 24419349; conditions: 5 days; read-out: Mean CC50 ± SD in PBMCs Stimulated; cited from earlier work
[6] = Chronic toxicology studies in rats; format: in vivo; conditions: up to 39 weeks
PC-3 cells = assay: Active triphosphate metabolite in PC-3 cells (LC-MS/MS); format: in vitro ADME, human; conditions: 10 μM incubation, maximal concentration observed after 48 h during a 5-day incubation
Experimental: The amount of nucleoside triphosphate was determined from three independent studies by ion-pairing liquid chromatography-tandem mass spectrometry (LC-MS/MS) as previously described ([16]). All compounds were incubated with the cells at 10 μM, except for BMS-986094 and NM107, which were incubated at 0.1 and 1 μM, respectively, due to the cytotoxicity observed at higher concentrations. Triphosphate concentrations for BMS-986094 and 2′CMeC were applied at doses normalized to the concentrations anticipated after a 10 μM incubation for comparison with the other NI. The reported TP levels are the maximal concentrations observed after 48 h during a 5-day incubation.

[7] = test system: Primary human hepatocytes; design: method as in PMID 24419349; conditions: 5 days, read-out: Mean CC50 ± SD in Hepatic cells (primary); cited from earlier work
[8] = Chronic toxicology studies in dogs; format: in vivo; conditions: up to 39 weeks
Quiescent PBMCs = test system: Quiescent PBMCs; design: method as in PMID 24419349; conditions: 5 days; read-out: Mean CC50 ± SD in PBMCs Quiescent; cited from earlier work

SMILES: [N-]=[N+]=N[C@]1(CO)O[C@@H](n2ccc(N)nc2=O)[C@H](O)[C@@H]1O [4′-AzidoC, 4′-azido cytidine]
- selectivity of effect on COX-1 versus SDH-A and ATP levels [1]: selective inhibition of COX-1 synthesis

SMILES: COc1nc(N)nc2c1ncn2[C@@H]1O[C@H](COP(=O)(N[C@@H](C)C(=O)OCC(C)(C)C)Oc2cccc3ccccc23)[C@@H](O)[C@@]1(C)O (some centres unmarked) [BMS-986094]
- CC50 at 5 days [2]: 680 ± 320 nM
- selectivity of effect on spare respiratory capacity versus DNA and ATP levels [3]: selective inhibition of mitochondrial respiration
- CC50 at 3 days [4]: 430 ± 140 nM
- relative levels of RNA transcripts (preribosomal, myc, mitochondrial ATP6, total RNA) [5]: decreased the relative levels of multiple RNA transcripts
- potentiation of mitochondrial and cellular toxicity by coincubation with RBV ([1]; 5-day treatment, RBV 10 μM): 3- to 4 fold
- selectivity of effect on COX-1 versus SDH-A and ATP levels [1]: selective inhibition of COX-1 synthesis
- fold more potent than IDX184 against the HCV replicon (HCV replicon): 30- to 60 fold

SMILES: CC(C)OC(=O)[C@H](C)N[P@](=O)(OC[C@H]1O[C@@](C#N)(c2ccc3c(N)ncnn23)[C@](C)(O)[C@@H]1OC(=O)C(C)C)Oc1ccccc1 [GS-6620]
- CC50 (Stimulated PBMCs): > 100000 nM
- effects during chronic toxicology studies [6]: did not show
- Mean TP concn ± SD (PC-3 cells): BLQ
- CC50 [7]: > 100000 nM
- effects during chronic toxicology studies [8]: did not show
- CC50 (Quiescent PBMCs): > 100000 nM
